Columns and labels:
Female CD-1 mice = assay: Dexamethasone-induced thymic and splenic atrophy, anti-glucocorticoid effect (Example 4); format: in vivo; conditions: 1.6 mg dexamethasone s.c., sacrifice about 24 hours later
Description: Female CD-1 mice were obtained from Charles River Laboratories, Kingston, N.Y. at 43-45 days of age. The mice were housed five per cage in plastic shoebox cages on corn cob bedding in the Fels Animal Facility at 72°±2° F. with 50%±5% humidity and twelve hours of alternate light and darkness. The mice had ad libitum access to Purina chain 5015 and acidified water for pretreatment.
Six days later, the mice were weighed, earmarked and redistributed into six groups for treatment: 1) a control group, 2) a group treated with dexamethasone (“DEX”), a glucocorticoid which induces thymic and splenic atrophy, 3) a group treated with 200 mg/kg 16α-fluoro-5-androsten-17-one (hereinafter “drug”), 4) a group treated with 400 mg/kg of, 5) a group treated with dexamethasone and 200 mg/kg drug and 6) a group treated with dexamethasone and 400 mg/kg drug. The treatment in the groups were as follows and were conducted simuitaneously.
The control group was intubated with 0.2 mL of sesame oil for three days. On the third day after commencement of the intubation, the mice were injected subcutaneously with 0.05 mL of absolute ethanol one hour after the last treatment with sesame oil.
The second group was intubated with 0.2 mL of sesame oil for three days. On the third day after the commencement of the intubation, the mice were injected subcutaneously with 1.6 mg of dexamethasone dissolved in 0.05 mL of absolute ethanol approximately one hour after the last treatment with sesame oil.
The third and fourth groups were intubated with 200 mg/Kg and 400 mg/Kg drug, respectively, suspended in 0.2 mL of sesame oil for three days. After commencement of the intubation, the mice were injected subcutaneously with 0.05 mL of absolute ethanol approximately one hour after the last treatment with sesame oil.
The fifth and sixth groups were intubated with 200 mg/kg and 400 mg/kg, respectively, of drug, suspended in 0.2 mL of sesame oil for three days. On the third day after commencement of the intubation, the mice were injected subcutaneously with 1.6 mg of dexamethasome dissolved in 0.05 mL of absolute ethanol approximately one hour after the last treatment with sesame oil.
All of the mice were sacrificed by an overdose of CO2 approximately 24 hours after the injection of ethanol (first, third and fourth groups) or approximately 24 hours after injection with dexamethasone (second, fifth and sixth groups). The mice were weighed and the thymus was excised, cleaned of adventia, rinsed in phosphate-buffered saline (P.B.S.), blotted and weighed. The spleen was also excised, cleaned, rinsed, blotted and weighed.

[1] = background statement; cited from earlier work

C[C@@H]1C[C@H]2[C@@H]3CCC4=CC(=O)C=C[C@]4(C)[C@@]3(F)[C@@H](O)C[C@]2(C)[C@@]1(O)C(=O)CO [DEX, dexamethasone, reference compound]
Spleen Wt. (Female CD-1 mice): 45.2 ± 7.5 mg | Thymus Wt. (Female CD-1 mice): 36.8 ± 7.1 mg

O=C(O)c1cccnc1 [Nicotinic acid, nicotinic acid]
Effect on insulin resistance [1]: worsens insulin resistance | Side effects [1]: intense flushing and associated pruritus

Cc1ccc(C)c(OCCCC(C)(C)C(=O)O)c1 [Gemfibrozil, gemfibrozil]
Effect on HDL levels [1]: modestly raises HDL levels | Effect on insulin resistance [1]: no effect on insulin resistance | Lowering of triglycerides [1]: 25-35%

From patent publication US20040019026A1, “Compounds useful for treating hypertriglyceridemia” (priority 2000, published 2004)
